Test results taken from US12157730B2, “Heteroaryl derivative, method for producing same, and pharmaceutical composition comprising same as effective component” (VORONOI INC., priority 2019, dated 2024).

molecular target: T1, Ba/F3 cell EGFR Exon20 ins NPH (Homo sapiens, UniProt P00533, INS773NPH); test: Ba/F3 cell proliferation suppression, EGFR Exon20 ins NPH; type: cell-based; details: GI50 class; Ba/F3 cell line with NPH inserted at Exon20 of EGFR; 72 hours
T1 construct: expressed in transfected cells; host or cells: Ba/F3
In short: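 Cells were seeded 24 h before dosing and then treated for 72 hours with compound at final concentrations of 0.3 nM to 50 um. Live cells were measured by CellTiter-Glo luminescence, and GI50 values were derived from growth ratio relative to control across three repeats.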

Ba/F3 (NPH) Activity	Structure (SMILES)
B (50 nM ≤ GI50 < 500 nM)	C=CC(=O)Nc1cc(Nc2cc(N3OCC[C@@H]3c3cccc(OC)c3)ncn2)c(OC)cc1N1CC[C@H](N2CCOCC2)C1 [compound 778, N-(4-methoxy-5-((6-((R)-3-(3-methoxyphenyl)isoxazolidine-2-yl)pyrimidine-4-yl)amino)-2-((S)-3-morpholinopyrolidine-1-yl)phenyl)acrylamide]
A (GI50 < 50 nM)	C=CC(=O)Nc1cc(Nc2cc(N3OCC[C@@H]3c3ccc(Cl)c(F)c3)ncn2)c(OC)cc1N1CCC(N2CCN(C(C)=O)CC2)CC1 [compound 796, N-(2-(4-(4-acetylpiperazine-1-yl)piperidine-1-yl)-5-((6-((R)-3-(4-chloro-3-fluorophenyl)isoxazolidine-2-yl)pyrimidine-4-yl)amino)-4-methoxyphenyl) acrylamide]
A (GI50 < 50 nM)	C=CC(=O)Nc1cc(Nc2cc(N3OCC[C@@H]3c3cccc(Cl)c3Cl)ncn2)c(OC)cc1N1CCN(C2COC2)CC1 [compound 520, N-(5-((6-((R)-3-(2,3-dichlorophenyl)isoxazolidine-2-yl)pyrimidine-4-yl)amino)-4-methoxy-2-(4-(oxetane-3-yl)piperazine-1-yl)phenyl) acrylamide]
A (GI50 < 50 nM)	C=CC(=O)Nc1cc(Nc2cc(N3OCC[C@@H]3c3c(F)ccc(F)c3F)ncn2)c(OC)cc1N1CCC(N2C[C@@H](C)O[C@@H](C)C2)CC1 [compound 644, N-(2-(4-((2S,6R)-2,6-dimethylmorpholino)piperidine-1-yl)-4-methoxy-5-((6-((R)-3-(2,3,6-trifluorophenyl)isoxazolidine-2-yl)pyrimidine-4-yl)amino)phenyl)acrylamide]
A (GI50 < 50 nM)	C=CC(=O)Nc1cc(Nc2cc(N3OCC[C@@H]3c3ccc(F)c(Cl)c3)ncn2)c(OC)cc1N1CCC(N(C)C)CC1 [compound 755, N-(5-((6-((R)-3-(3-chloro-4-fluorophenyl)isoxazolidine-2-yl)pyrimidine-4-yl)amino)-2-(4-(dimethylamino)piperidine-1-yl)-4-methoxyphenyl) acrylamide]
A (GI50 < 50 nM)	C=CC(=O)Nc1cc(Nc2cc(N3OCC[C@@H]3c3cc(F)ccc3F)ncn2)c(OC)cc1N1CCC(N2C[C@@H](C)N(C3CC3)C[C@@H]2C)CC1 [Example 174, N-(2-(4-((2S,5R)-4-cyclopropyl-2,5-dimethylpiperazine-1-yl)piperidine-1-yl)-5-((6-((R)-3-(2,5-difluorophenyl)isoxazolidine-2-yl)pyrimidine-4-yl)amino)-4-methoxyphenyl) acrylamide]
A (GI50 < 50 nM)	C=CC(=O)Nc1cc(Nc2cc(N3OCC[C@@H]3c3ccc(Cl)cc3F)ncn2)c(OC)cc1N1CCC(N2C[C@@H](C)O[C@@H](C)C2)CC1 [compound 374, N-(5-((6-((R)-3-(4-chloro-2-fluorophenyl)isoxazolidine-2-yl)pyrimidine-4-yl)amino)-2-(4-((2S,6R)-2,6-dimethylmorpholino)piperidine-1-yl)-4-methoxyphenyl) acrylamide]
B (50 nM ≤ GI50 < 500 nM)	C=CC(=O)Nc1cc(Nc2cc(N3OCC[C@@H]3c3cccc(Cl)c3Cl)ncn2)c(OC)cc1N1CCC(N(C)CCN(C)C)CC1 [compound 613, N-(5-((6-((R)-3-(2,3-dichlorophenyl)isoxazolidine-2-yl)pyrimidine-4-yl)amino)-2-(4-((2-(dimethylamino)ethyl) (methyl)aino)piperidine-1-yl)-4-methoxyphenyl) acrylamide]
B (50 nM ≤ GI50 < 500 nM)	C=CC(=O)Nc1cc(Nc2cc(N3OCC[C@@H]3c3cccc(Cl)c3F)ncn2)c(OC)cc1N1CCC(N2CCC(N(C)C)CC2)CC1 [compound 915, N-(5-((6-((R)-3-(3-chloro-2-fluorophenyl)isoxazolidine-2-yl)pyrimidine-4-yl)amino)-2-(4-(dimethylamino)-[1,4'-bipiperidine]-1'-yl)-4-methoxyphenyl) acrylamide]
